# Measurements taken from ChEMBL document CHEMBL5661943, “ASAP - In vitro antiviral effect” (2024).
# Tests used:
# dengue virus type 2 = assay: Functional immunofluorescence assay to measure dose dependent changes in antiviral-drug inhibitory efficacy against Dengue virus type 2 Thailand/16681/84 in Vero E6/TMPRSS2 cells (cotreated with P-gp inhibitor, Elacridar). Cells are treated with antiviral candidates that are serially diluted, following infection, cells are fixed. EC50 is reported via analysis of immunofluorescence staining. The assay has been performed by Icahn School of Medicine at Mount Sinai.; assay type: organism-based, Chlorocebus sabaeus, VeroE6/TMPRSS2
# Zika virus = assay: EC50 is reported via analysis of immunofluorescence staining. The assay has been performed by Icahn School of Medicine at Mount Sinai.; assay type: functional, organism-based, Chlorocebus sabaeus, VeroE6/TMPRSS2; conditions: for EC90: P-gp concentration 2 uM, P-gp inhibitor Elacidar
compound,measurement,setting,value
O=C(Nc1cc(Cl)cc(S(=O)(=O)Nc2cccc(-c3nn[nH]n3)c2)c1)OCc1ccccc1,EC50,"dengue virus type 2; Dengue virus, VeroE6/TMPRSS2",> 50 µM
same,EC90,"dengue virus type 2; Dengue virus, VeroE6/TMPRSS2, Maximum measured 125.288 %, Minimum measured 43.28 %, P-gp concentration 2 uM, P-gp inhibitor Elacidar",> 50 µM
same,EC50,"Zika virus; Zika virus, VeroE6/TMPRSS2",> 16.7 µM
same,EC90,"Zika virus; Zika virus, VeroE6/TMPRSS2, Maximum measured 147.808 %, Minimum measured 131.825 %",> 16.7 µM
CCOc1cccc(-c2ccc(S(=O)(=O)Nc3ccc(Cl)cc3C(=O)O)cc2)c1,EC90,"dengue virus type 2; Dengue virus, VeroE6/TMPRSS2, Maximum measured 86.49 %, Minimum measured 33.39 %, P-gp concentration 2 uM, P-gp inhibitor Elacidar",> 3.33 µM
same,EC90,"dengue virus type 2; Dengue virus, VeroE6/TMPRSS2, Maximum measured 135.635 %, Minimum measured 86.345 %, P-gp concentration 2 uM, P-gp inhibitor Elacidar",> 16.7 µM
same,EC50,dengue virus type 2; veroe6/tmprss2,> 16.7 µM
same,EC90,"Zika virus; Baseline response 0 %, Hill slope -0.264, Maximum measured 100.253 %, Maximum response 100 %, Minimum measured 37.313 %, R squared 0.296",> 16.7 µM
same,EC50,"Zika virus; Zika virus, VeroE6/TMPRSS2",> 10 µM
same,EC90,"Zika virus; Zika virus, VeroE6/TMPRSS2, Baseline response 0 %, Hill slope -0.107, Maximum measured 149.039 %, Maximum response 100 %, Minimum measured 60.172 %, R squared 0.014",> 10 µM
same,EC50,Zika virus; veroe6/tmprss2,9.76 µM
CC[C@H](Cc1nn[nH]n1)c1ccc(N[C@H](C(=O)NC)c2cc(Cl)cc(NC(=O)OCc3ccccc3)c2)cc1,EC50,"dengue virus type 2; Dengue virus, VeroE6/TMPRSS2",> 50 µM
same,EC90,"dengue virus type 2; Dengue virus, VeroE6/TMPRSS2, Baseline response 0 %, Hill slope -0.218, Maximum measured 117.472 %, Maximum response 100 %, Minimum measured 37.097 %, P-gp concentration 2 uM, R squared 0.193, P-gp inhibitor Elacidar",> 50 µM
same,EC50,"Zika virus; Zika virus, VeroE6/TMPRSS2",> 50 µM
same,EC90,"Zika virus; Zika virus, VeroE6/TMPRSS2, Maximum measured 168.95 %, Minimum measured 107.074 %",> 50 µM
Cc1ccc(-c2nnn[nH]2)cc1NC(=O)c1cc(Cl)cc(NC(=O)OCc2ccccc2)c1,EC50,"dengue virus type 2; Dengue virus, VeroE6/TMPRSS2",40.5 µM
same,EC90,"dengue virus type 2; Dengue virus, VeroE6/TMPRSS2, Baseline response 0 %, Hill slope -16.355, Maximum measured 369.361 %, Maximum response 277.036 %, Minimum measured 8.558 %, P-gp concentration 2 uM, R squared 0.765, P-gp inhibitor Elacidar",46.3 µM
same,EC50,"Zika virus; Zika virus, VeroE6/TMPRSS2",> 16.7 µM
same,EC90,"Zika virus; Zika virus, VeroE6/TMPRSS2, Maximum measured 182.406 %, Minimum measured 123.883 %",> 16.7 µM
Cc1ccc(S(=O)(=O)CNC(=O)[C@H](Nc2ccc3c(c2)CNC3)c2cc(Cl)cc3[nH]ncc23)cc1,EC50,"dengue virus type 2; Dengue virus, VeroE6/TMPRSS2",> 50 µM
same,EC90,"dengue virus type 2; Dengue virus, VeroE6/TMPRSS2, Baseline response 0 %, Hill slope 0.271, Maximum measured 147.697 %, Maximum response 100 %, Minimum measured 56.785 %, P-gp concentration 2 uM, R squared 0.117, P-gp inhibitor Elacidar",> 50 µM
same,EC50,"Zika virus; Zika virus, VeroE6/TMPRSS2",> 5.56 µM
same,EC90,"Zika virus; Zika virus, VeroE6/TMPRSS2, Baseline response 0 %, Hill slope -0.504, Maximum measured 105.322 %, Maximum response 100 %, Minimum measured 58.532 %, R squared 0.723",> 5.56 µM
O=C(Nc1cc(Cl)cc(N[C@H](C#CCO)c2ccc(-c3nn[nH]n3)cc2)c1)OCc1ccccc1,EC50,"dengue virus type 2; Dengue virus, VeroE6/TMPRSS2",> 50 µM
same,EC90,"dengue virus type 2; Dengue virus, VeroE6/TMPRSS2, Baseline response 0 %, Hill slope -0.373, Maximum measured 106.055 %, Maximum response 100 %, Minimum measured 56.8 %, P-gp concentration 2 uM, R squared 0.212, P-gp inhibitor Elacidar",> 50 µM
same,EC50,"Zika virus; Zika virus, VeroE6/TMPRSS2",> 16.7 µM
same,EC90,"Zika virus; Zika virus, VeroE6/TMPRSS2, Maximum measured 78.226 %, Minimum measured 29.543 %",> 16.7 µM
CCOC(=O)Nc1cc(Cl)cc(C(=O)Nc2cccc(CN)c2)c1,EC50,"dengue virus type 2; Dengue virus, VeroE6/TMPRSS2",> 16.7 µM
same,EC90,"dengue virus type 2; Dengue virus, VeroE6/TMPRSS2, Maximum measured 179.291 %, Minimum measured 97.679 %, P-gp concentration 2 uM, P-gp inhibitor Elacidar",> 16.7 µM
same,EC50,"Zika virus; Zika virus, VeroE6/TMPRSS2",> 50 µM
same,EC90,"Zika virus; Zika virus, VeroE6/TMPRSS2, Maximum measured 144.074 %, Minimum measured 100.96 %",> 50 µM
c1ccc2c(CN3CCC(c4cscn4)CC3)c[nH]c2c1,EC90,"dengue virus type 2; Baseline response 0 %, Hill slope -0.247, Maximum measured 100.251 %, Maximum response 100 %, Minimum measured 62.836 %, P-gp concentration 2 uM, R squared 0.15, P-gp inhibitor Elacidar",> 10 µM
same,EC90,"dengue virus type 2; Baseline response 0 %, Hill slope -0.248, Maximum measured 160.986 %, Maximum response 100 %, Minimum measured 66.91 %, P-gp concentration 2 uM, R squared 0.115, P-gp inhibitor Elacidar",> 50 µM
same,EC50,dengue virus type 2; veroe6/tmprss2,> 50 µM
same,EC90,"Zika virus; Zika virus, VeroE6/TMPRSS2, Maximum measured 113.51 %, Minimum measured 55.055 %",> 10 µM
same,EC90,"Zika virus; Zika virus, VeroE6/TMPRSS2, Maximum measured 115.408 %, Minimum measured 68.286 %",> 50 µM
same,EC50,Zika virus; veroe6/tmprss2,> 50 µM
CC[C@H](Cc1nnn[nH]1)c1ccc(NC(=O)[C@H]2[C@H]3CCCCC[C@H]3[C@H]2NC(=O)OCc2ccccc2)cc1,EC50,"dengue virus type 2; Dengue virus, VeroE6/TMPRSS2",16.1 µM
same,EC90,"dengue virus type 2; Dengue virus, VeroE6/TMPRSS2",44.8 µM
same,EC50,"Zika virus; Zika virus, VeroE6/TMPRSS2",> 50 µM
same,EC90,"Zika virus; Zika virus, VeroE6/TMPRSS2, Baseline response 0 %, Hill slope -0.151, Maximum measured 102.715 %, Maximum response 100 %, Minimum measured 55.5 %, R squared 0.202",> 50 µM
